{"source": "patent US7371407B2", "about": "“Use of Emu Oil and its various fractions as a carrier for antifungal, antibacterial, and antiviral medications and preparations” (Ganeden Biotech, Inc., priority 1999, dated 2008)", "key": {"[1]": {"system": "opportunistic bacterial pathogens", "experiment": "In vitro bacterial pathogen screen (DIFCO BACTROL Disk Set) on potato-dextrose plates", "type": "cell-based", "settings": "positive control, 18 hr at 30° C.", "excerpt": "The ability of Bacillus coagulans to inhibit various opportunistic bacterial pathogens was quantitatively ascertained by use of an in vitro assay. This assay is part of a standardized bacterial pathogen screen (developed by the U.S. Food and Drug Administration(FDA)) and is commercially available on solid support disks (DIFCO® BACTROL® Disk Set). To perform the assay, potato-dextrose plates (DIFCO®) were initially prepared using standard procedures. The plates were then individually inoculated with each of the bacteria (approximately 1.5×10^6 CFU) to be tested, so as to form a confluent bacterial bed.\nInhibition by Bacillus coagulans was subsequently ascertained by placing approximately 1.5×10^6 CFU of Bacillus coagulans in 10 μl of broth or buffer, directly in the center of the potato-dextrose plate, with one test locus being approximately 8 mm in diameter per plate. A minimum of three test loci were used for each assay. The negative control consisted of a 10 μl volume of a sterile saline solution, whereas the positive control consisted of a 10 μl volume of glutaraldehyde. The plates were then incubated for approximately about 18 hr at 30° C., at which time the zones of inhibition were measured. […]"}, "Trichophyton species": {"system": "Trichophyton species", "experiment": "In vitro inhibition assay on potato-dextrose plates, fungal pathogens", "type": "cell-based", "settings": "positive control, 18 hr at 30° C.", "description": "In the assay, potato-dextrose plates (DIFCO®, Detroit, Mich.) were prepared using standard procedures and were inoculated individually with a confluent bed (about 1.7×10^6) of various species of the fungus Trichophyton. The tested fungal strains of Trichophyton species (available from the American Type Culture Collection (ATCC; Rockville, Md.)) and their ATCC accession numbers, as well as the results of in vitro inhibition by Bacillus coagulans are illustrated in FIG. 4.\nInhibition by Bacillus coagulans was ascertained by placing on the plate approximately 1.5×10^6 colony forming units (CFU) in 10 μl of broth or buffer, plated directly in the center of the potato-dextrose plate, with one test locus per plate. The size of each test locus was approximately 8 mm in diameter and a minimum of three tests were performed for each inhibition assay. The negative control consisted of a […] of sterile saline solution, whereas the positive control consisted of a […] 2% Miconazole (1-[2-(2,4-dichlorophenyl)-2-[(2,4-dichlorophenyl)methoxylmethyl-1,11-imidazole within an inert cream.\nThe plates were then incubated for approximately 18 hr at 30° C., at which time the zones of inhibition were measured. […]"}, "four species of Candida": {"system": "four species of Candida", "experiment": "In vitro inhibition assay on potato-dextrose plates, yeast pathogens", "type": "cell-based", "settings": "positive control, 18 hr at 30° C.", "description": "Each of the yeast pathogens and their ATCC accession numbers are illustrated in FIG. 5.\nIn the in vitro inhibition assay, potato-dextrose plates (DIFCO®, Detroit, Mich.) were prepared using standard procedures and were inoculated individually with a confluent bed about 1.7×10^6 of the four species of Candida. Inhibition by Bacillus coagulans was tested by placing on the plate about 1.5×10^6 colony forming units (CFU) in 10 μl of broth or buffer, plated directly in the center of the potato-dextrose plate with one test locus of about 8 mm in diameter per plate. A minimum of three tests were performed for each inhibition assay. The negative control consisted of a 10 μl volume of a sterile saline solution, whereas the positive control consisted of a 1 μl volume of Miconazole cream.\nThe plates were then incubated for approximately 18 hr at 30° C., at which time the zones of inhibition were measured. As designated herein, “excellent inhibition” means the zone was 10 mm or greater in diameter; and “good inhibition” means the zone was greater than 2 mm in diameter, but less than 10 mm in diameter."}, "[2]": {"settings": "topically-administered without dermal-penetrants; cited from earlier work"}}}
{"smiles": "O=CCCCC=O", "note": "[glutaraldehyde]", "values": [{"measurement": "zone of inhibition, diameter", "setting": "[1]; 10 μl, average of three tests", "value": "approximately 16.2 mm"}, {"measurement": "inhibition class", "setting": "[1]", "value": "excellent (“excellent inhibition” means the zone was 10 mm or greater in diameter)"}]}
{"smiles": "Clc1ccc(COC(Cn2ccnc2)c2ccc(Cl)cc2Cl)c(Cl)c1", "note": "(stereo not shown) [Miconazole]", "values": [{"measurement": "zone of inhibition, diameter", "setting": "Trichophyton species; 2% in inert cream, mean average of three tests", "value": "approximately 8.5 mm"}, {"measurement": "inhibition class", "setting": "Trichophyton species", "value": "good (“good inhibition” means the zone was greater than 2 mm in diameter, but less than 10 mm in diameter)"}, {"measurement": "zone of inhibition, diameter", "setting": "four species of Candida; cream, average of three tests", "value": "approximately 8.7 mm"}, {"measurement": "inhibition class", "setting": "four species of Candida", "value": "good (“good inhibition” means the zone was greater than 2 mm in diameter, but less than 10 mm in diameter)"}]}
{"smiles": "CC(C(=O)O)c1cccc(C(=O)c2ccccc2)c1", "note": "(stereo not shown) [Ketoprofen]", "values": [{"measurement": "adsorption through viable, keritinized dermal tissue", "setting": "[2]", "value": "very limited concentration, if at all"}]}
